Assay [1] has as its system Human promyelocytic leukemia (HL60) cells. The experiment in a line: HL-60 cell differentiation (nitro blue tetrazolium reduction). Format: cell-based. To be noted: 4 days, FIG. 2. On the procedure:
The study drugs were dissolved in ethanol and the concentrations determined using UV spectrophotometry. Serial dilutions were prepared so that a range of drug concentrations could be tested without changing the final concentration of ethanol (≦0.2%) present in the cell cultures.
Human promyelocytic leukemia (HL60) cells were grown in RPMI-1640 medium containing 10% fetal bovine serum. The cells were incubated at 37° C. in the presence of 5% CO2.
HL60 cells were plated at 1.2×10^5 cells/ml. Eighteen hours after plating, cells in duplicate were treated with drug. Four days later, the cells were harvested and a nitro blue tetrazolium reduction assay was performed (Collins et al., 1979; J. Exp. Med. 149:969-974). The percentage of differentiated cells was determined by counting a total of 200 cells and recording the number that contained intracellular black-blue formazan deposits. Verification of differentiation to monocytic cells was determined by measuring phagocytic activity (data not shown).

The nature of assay [2]: Bone calcium mobilization (serum calcium) in vitamin D-deficient rats. Format: in vivo, Sprague-Dawley rats. To be noted: 0.02% Ca diet. On the procedure: (§1) Male, weanling Sprague-Dawley rats were placed on Diet 11 (0.47% Ca)+AEK for one week followed by Diet 11 (0.02% Ca)+AEK for 3 weeks. The rats were then switched to the same diet containing 0.47% Ca for one week followed by two weeks on the same diet containing 0.02% Ca. Dose administration began during the last week on 0.02% calcium diet. Four consecutive ip doses were given approximately 24 hours apart. Twenty-four hours after the last dose, blood was collected from the severed neck and the concentration of serum calcium determined by atomic absorption spectrometry as a measure of bone calcium mobilization. The first 10 cm of the intestine was also collected for intestinal calcium transport analysis using the everted gut sac method.

Assay [3] in a line: Intestinal calcium transport, everted gut sac method, in vitamin D-deficient rats. Format: in vivo, Sprague-Dawley rats. To be noted: FIG. 6. On the procedure:
as §1

The subject of assay [4] is 24-hydroxylase (24Ohase) gene promoter. In words: In vitro transcription assay (luciferase reporter) in ROS 17/2.8 (bone) cells. Format: cell-based. To be noted: ROS 17/2.8 cells, 24Ohase promoter-luciferase, 16 h; FIG. 3; read-out: EC50, transcriptional activity in bone cells. How it is done: Transcription activity was measured in ROS 17/2.8 (bone) cells that were stably transfected with a 24-hydroxylase (24Ohase) gene promoter upstream of a luciferase reporter gene (Arbour et al., 1998). Cells were given a range of doses. Sixteen hours after dosing the cells were harvested and luciferase activities were measured using a luminometer.
RLU=relative luciferase units.
(Reporter assays use an easily measured gene product as a stand-in for the process of interest.)

Assay [5] has as its target T1, full-length recombinant rat vitamin D receptor (Rattus norvegicus, UniProt P13053).
T1 construct: Full-length recombinant rat receptor was expressed in E. coli; histidine tag (C); made in house; host or cells: E. coli BL21 (DE3) Codon Plus RIL
T1 sequence (P13053 1-423): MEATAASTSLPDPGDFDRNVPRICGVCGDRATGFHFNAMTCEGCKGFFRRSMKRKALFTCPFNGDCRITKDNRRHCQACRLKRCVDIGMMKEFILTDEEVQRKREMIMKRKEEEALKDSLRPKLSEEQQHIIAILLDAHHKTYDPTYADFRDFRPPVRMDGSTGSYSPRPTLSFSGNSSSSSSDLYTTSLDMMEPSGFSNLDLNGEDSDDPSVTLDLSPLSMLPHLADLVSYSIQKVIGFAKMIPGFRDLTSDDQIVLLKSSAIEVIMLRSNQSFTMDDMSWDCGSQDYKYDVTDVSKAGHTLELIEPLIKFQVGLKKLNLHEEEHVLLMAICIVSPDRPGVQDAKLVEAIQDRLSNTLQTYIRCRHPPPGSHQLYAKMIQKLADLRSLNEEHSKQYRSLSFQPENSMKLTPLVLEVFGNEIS
In words: Vitamin D receptor competitive binding with [3H]-1,25(OH)2D3. To be noted: full-length recombinant rat VDR; FIG. 1; read-out: Ki, competition with [3H]-1,25(OH)2D3 for binding to the vitamin D receptor. How it is done:
Full-length recombinant rat receptor was expressed in E. coli BL21 (DE3) Codon Plus RIL cells and purified to homogeneity using two different column chromatography systems. The first system was a nickel affinity resin that utilizes the C-terminal histidine tag on this protein. The protein that was eluted from this resin was further purified using ion exchange chromatography (S-Sepharose Fast Flow). Aliquots of the purified protein were quick frozen in liquid nitrogen and stored at −80° C. until use. For use in binding assays, the protein was diluted in TEDK50 (50 mM Tris, 1.5 mM EDTA, pH7.4, 5 mM DTT, 150 mM KCl) with 0.1% Chaps detergent. The receptor protein and ligand concentration were optimized such that no more than 20% of the added radiolabeled ligand was bound to the receptor.
Radiolabeled and unlabeled ligands were added to 100 mcl of the diluted protein at a final ethanol concentration of ≦10%, mixed and incubated overnight on ice to reach binding equilibrium. The following day, 100 mcl of hydroxylapatite slurry (50%) was added to each tube and mixed at 10-minute intervals for 30 minutes. The hydroxylapaptite was collected by centrifugation and then washed three times with Tris-EDTA buffer (50 mM Tris, 1.5 mM EDTA, pH 7.4) containing 0.5% Titron X-100. […] Total binding was determined from the tubes containing only radiolabeled ligand.

As usually defined, the EC50 is the concentration needed to bring the measured effect to its halfway point. As a reminder, the Ki is the equilibrium dissociation constant of an inhibitor or competing ligand from its target.

Each structure is given as a SMILES string.

As for `C=C1/C(=C\C=C2/CCC[C@]3(C)[C@@H]([C@H](C)CCCC(C)(C)O)CC[C@@H]23)C[C@@H](O)C[C@@H]1O` [1,25(OH)2D3, 1α,25-dihydroxyvitamin D3, reference compound], the results for the 50% effective concentration (EC50) in assay [1] and in assay [4] were 6.2 nM and 0.22 nM, respectively. Further, the “serum calcium levels (bone calcium mobilization)” value in assay [2] (all dosages tested (FIG. 4)) was “increased serum calcium levels”. Also, in assay [3] (780 pmol/day ip for 4 days), the intestinal calcium transport entry was “promotes a significant increase”.
`C=C1[C@H](O)CC(=C/C=C2\CCC[C@]3(C)C(=C(C)C)CCC23)C[C@H]1O` (stereo partly drawn) [VIT-I, 2-methylene-19-nor-1α-hydroxy-17-ene-homopregnacalciferol]: the Ki in assay [5] was determined as 0.19 nM. The 50% effective concentration (EC50) in assay [1] (Homo sapiens, HL-60, 96 h) was found to be 13 nM; in assay [4], 6 nM. The “mobilization of bone calcium (serum calcium)” value in assay [2] (780 pmol/day ip for 4 consecutive days) is “did not result in mobilization of bone calcium”; in assay [2] (2340 pmol/day ip for 4 consecutive days) it was “without any substantial effect”; in assay [2] (7020 pmol/day ip for 4 consecutive days) it was “without any substantial effect”. Besides, the intestinal calcium transport entry in assay [3] (780 pmol/day ip for 4 days), in assay [3] (2340 pmol/day ip for 4 days) and in assay [3] (7020 pmol/day ip for 4 days) was “does not promote intestinal calcium transport” each time.

For the origin of these results see patent publication US7704982B2, “2-methylene-19-nor-1α-hydroxy-17-ene-homopregnacalciferol and its uses” (Wisconsin Alumni Research Foundation, priority 2004, dated 2010).
